Laboratory results reported in US10568874B2, “Indane-amines as PD-L1 antagonists” (CHEMOCENTRYX, INC., priority 2018, dated 2020).

What follows are compounds tested against human PD-L1 (Homo sapiens (Human), UniProt Q9NZQ7) (assay: Enzyme-Linked Immunosorbent Assay (ELISA), PD-1/PD-L1 binding). Conditions: plate-coated human PD-L1, biotinylated human PD-1.
Experimental: Plates were coated with 1 μg/mL of human PD-L1 (obtained from R&D) in PBS overnight at 4° C. The wells were then blocked with 2% BSA in PBS (W/V) with 0.05% TWEEN-20 for 1 hour at 37° C. The plates were washed 3 times with PBS/0.05% TWEEN-20 and the samples were diluted to 1:5 in dilution medium in the ELISA plates. Human PD-1 and biotin 0.3 μg/mL (ACRO Biosystems) were added and incubated for 1 hour at 37° C. then washed 3 times with PBS/0.05% TWEEN-20. A second block was added with 2% SA in PBS (W/V)/0.05% TWEEN-20 for 10 min at 37° C. and was washed 3 times with PBS/0.05% TWEEN-20. Streptavidin-HRP was added for 1 hour at 37° C. then washed 3 times with PBS/0.05% TWEEN-20. TMB substrate was added and reacted for 20 min at 37° C. A stop solution (2 N aqueous H2SO4) was added. The absorbance was read at 450 nm using a micro-plate spectrophotometer.

human PD-L1, sequence (Q9NZQ7 19-239): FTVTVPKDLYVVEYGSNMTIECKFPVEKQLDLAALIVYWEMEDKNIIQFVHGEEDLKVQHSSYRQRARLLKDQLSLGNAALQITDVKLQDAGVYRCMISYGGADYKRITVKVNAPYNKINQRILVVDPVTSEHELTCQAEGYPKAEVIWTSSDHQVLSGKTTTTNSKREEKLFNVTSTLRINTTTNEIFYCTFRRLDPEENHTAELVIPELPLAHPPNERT

CCOc1cc(NC2CCc3c(-c4cccc(OCCCN5CCC(F)CC5)c4C)cccc32)c(Cl)cc1CN[C@H]1CCC(=O)NC1 (some centres unmarked) and CCOc1cc(NC2CCc3c(-c4cccc(OCCCN5CCC(C)(F)CC5)c4C)cccc32)c(Cl)cc1CN[C@H]1CCC(=O)NC1 (some centres unmarked) fall in the same range of IC50: 500 to 20000 nM for the first, 500 to 20000 nM for the second.

CCOc1cc(NC2CCc3c(-c4ccccc4F)cccc32)c(Cl)cc1CN[C@@H](CO)C(=O)O (stereo partly drawn) [(2S)-2-[[5-chloro-2-ethoxy-4-[[4-(2-fluorophenyl)indan-1-yl]amino]phenyl]methylamino]-3-hydroxy-propanoic Acid] and CCOc1cc(NC2CCc3c(-c4cccc(OCCCN5CCC(F)CC5)c4C)cccc32)c(Cl)cc1CN[C@@H](CO)C(=O)O (some centres unmarked) fall in the same range of IC50: 5 to 500 nM for the first, 5 to 500 nM for the second.

CCOc1cc(NC2CCc3c(-c4cccc(OCCCN5CCC(C)(F)CC5)c4Cl)cccc32)c(Cl)cc1CN1CCC(O)CC1 (centres unmarked) and CCOc1cc(NC2CCc3c(-c4cccc(OCCCN5CCC(C)(F)CC5)c4Cl)cccc32)c(Cl)cc1CN[C@H]1CCC(=O)NC1 (some centres unmarked) fall in the same range of IC50: 500 to 20000 nM for the first, 500 to 20000 nM for the second.

CCOc1cc(NC2CCc3c(-c4cccc(OCCCN5CCC(F)CC5)c4C)cccc32)c(Cl)cc1CNC[C@@H]1CCC(=O)N1 (some centres unmarked) and CCOc1cc(NC2CCc3c(-c4cccc(OCCCN5CCC(C)(F)CC5)c4C)cccc32)c(Cl)cc1CNC[C@@H]1CCC(=O)N1 (some centres unmarked) fall in the same range of IC50: 5 to 500 nM for the first, 5 to 500 nM for the second.
